Assay results as given in US20180207105A1, “METHOD FOR MANUFACTURING A THERAPEUTIC AGENT FOR USE IN THE TREATMENT OF INFECTIONS” (AGA NANOTECH LTD, priority 2014, published 2018).

Test: pH of solutions of the active ingredients alone dissolved in ultrapure water
Format: physicochemical
[1] = 17.5 mg/ml (1.75 wt %) in ultrapure water
[2] = 35 mg/ml (3.5 wt %) in ultrapure water
[3] = 70 mg/ml (7 wt %) in ultrapure water
[4] = 140 mg/ml (14 wt %) in ultrapure water
[5] = 280 mg/ml (28 wt %) in ultrapure water

| Compound | pH of solution [1] | pH of solution [2] | pH of solution [3] | pH of solution [4] | pH of solution [5] |
| --- | --- | --- | --- | --- | --- |
| O=C([O-])[O-].O=C([O-])[O-].OO.OO.OO.[Na+].[Na+].[Na+].[Na+] [Sodium Percarbonate, Sodium percarbonate] | 10.83 | 10.89 | 10.87 | 10.83 | 10.74 |
| NC(N)=O.OO [Urea Hydrogen Peroxide, urea hydrogen peroxide] | 7.90 | 6.92 | 6.9 | 6.38 | 4.97 |
